Assay results published in patent US10322191B2, “Targeted conjugates and particles and formulations thereof” (TARVEDA THERAPEUTICS, INC., priority 2014, dated 2019).
Read-outs that look alike come from different tables or passages of the source. Bridge positions count the residues as written; N and C are the ends. Square brackets hold non-standard residues; d marks the D form. Peptide text beside a SMILES is read from it. * marks the point of attachment. X1 = COc1cc2cc(c1Cl)N(C)C(=O)C[C@H](OC(=O)[C@H](C)N(C)C(=O)CCS*)[C@]1(C)O[C@H]1[C@H](C)[C@@H]1C[C@@](O)(NC(=O)O1)[C@H](OC)/C=C/C=C(\C)C2; Thr(ol) = C[C@@H](O)[C@H](N)CO

System: NCI-H524 (ATCC) human lung cancer cells
Type: cell-based
Description: Conjugates were assessed in an in vitro assay evaluating inhibition of cell proliferation. NCI-H524 (ATCC) human lung cancer cells were plated in 96 well, V-bottomed plates (Costar) at a concentration of 5,000 cells/well and 24 hours later were treated with compound for 2 hours and further incubated 70 hours. Compound starting dose was 20 μM and three-fold serial dilutions were done for a total of ten points. After 2 hours of treatment, cells were spun down, the drug containing media was removed, and fresh complete medium was added and used to resuspend the cells, which were spun again. After removal of the wash media, the cells were resuspended in complete medium, then transferred into white walled, flat bottomed 96 well plates. […] Proliferation was measured using CellTiter Glo reagent using the standard protocol (Promega) and a Glomax multi+detection system (Promega). Percent proliferation inhibition was calculated using the following formula: % inhibition=(control-treatment)/control*100. Control is defined as vehicle alone. IC50 curves were generated using the nonlinear regression analysis (four parameter) with GraphPad Prism 6.
Conjugates of the present invention were assessed in an in vitro assay evaluating inhibition of cell proliferation. NCI-H524 (ATCC) human lung cancer cells were plated in 96 well, V-bottomed plates (Costar) at a concentration of 5,000 cells/well. 24 hours later, cells were treated with either conjugate for 2 hours and further incubated 70 hours, or for octreotide competition experiments, treated with 100 μM octreotide for 30 min, and then treated with conjugate for 2 hours, and further incubated for 70 hours. Conjugate starting dose was 20 μM and three fold serial dilutions were done for a total of ten points. After 2 hours of treatment, cells were spun down, the drug containing media was removed, and fresh complete medium was added and used to resuspend the cells, which were spun again. After removal of the wash media, the cells were resuspended in complete medium, then transferred into white walled, flat bottomed 96 well plates. […] Proliferation was measured using CellTiter Glo reagent using the standard protocol (Promega) and a Glomax multi+detection system (Promega). Percent proliferation inhibition was calculated using the following formula: % inhibition=(control-treatment)/control*100. Control is defined as vehicle alone. IC50 curves were generated using the nonlinear regression analysis (four parameter) with GraphPad Prism 6.
Conjugates of the present invention were tested for their activity dependence on the somatostatin receptor. Active agent Z in the conjugate was selected from auristatin, carbazitaxel, DM1, doxorubicin, platinum, SN-38 and vinblastine. Active agent Z is connected to octreotide with various linkers. Proliferation IC50 values of the conjugates were measured. Proliferation IC50 values of the conjugates without octreotide competition were also measured. The ratio of IC50 with octreotide competition and IC50 without octreotide competition is an indicator of whether activity is at least partially dependent on bind to the somatostatin receptor.

[1] = Table 6, treated 2 hours, further incubated 70 hours, read-out: H524 IC50
[2] = read-out: H524 IC50 + 100 μM octreotide, Table 6, with octreotide competition
[3] = read-out: H524 IC50+ 100 uM octreotide, Table 15, 100 μM octreotide for 30 min, then conjugate 2 hours, 70 hours incubation
[4] = Table 15, treated 2 hours, further incubated 70 hours, read-out: H524 IC50

| Compound | IC50 [1] | IC50 [2] | IC50 [3] | IC50 [4] |
| --- | --- | --- | --- | --- |
| CC[C@H](C)[C@@H]([C@@H](CC(=O)N1CCC[C@H]1[C@H](OC)[C@@H](C)C(=O)N[C@H](C)[C@@H](O)c1ccccc1)OC)N(C)C(=O)[C@@H](NC(=O)[C@H](C(C)C)N(C)C(=O)OCc1ccc(NC(=O)[C@H](CCCNC(N)=O)NC(=O)[C@@H](NC(=O)CCCCCN2C(=O)CC(SCCC(=O)N[C@H](Cc3ccccc3)C(=O)N[C@H]3CSSC[C@@H](C(=O)N[C@H](CO)[C@@H](C)O)NC(=O)[C@H]([C@@H](C)O)NC(=O)[C@H](CCCCN)NC(=O)[C@@H](Cc4c[nH]c5ccccc45)NC(=O)[C@H](Cc4ccccc4)NC3=O)C2=O)C(C)C)cc1)C(C)C (stereo partly drawn) [Conjugate 5] | 0.433 µM | 0.826 µM | – | – |
| COc1cc2cc(c1Cl)N(C)C(=O)C[C@H](OC(=O)[C@H](C)N(C)C(=O)CCSSCCC(=O)NCCOCCOCCOCCOCCOCCOCCOCCOCCC(=O)N[C@H](Cc1ccccc1)C(=O)N[C@H]1CSSC[C@@H](C(=O)N[C@H](CO)[C@@H](C)O)NC(=O)[C@H]([C@@H](C)O)NC(=O)[C@H](CCCCN)NC(=O)[C@@H](Cc3c[nH]c4ccccc34)NC(=O)[C@H](Cc3ccccc3)NC1=O)[C@]1(C)O[C@H]1[C@H](C)[C@@H]1C[C@@](O)(NC(=O)O1)[C@H](OC)/C=C/C=C(\C)C2 [Conjugate 6] | 0.234 µM | 0.629 µM | 0.629 µM | – |
| COc1cc2cc(c1Cl)N(C)C(=O)C[C@H](OC(=O)[C@H](C)N(C)C(=O)CCSSC[C@H](N)C(=O)N[C@@H](CCCCN)C(=O)N[C@@H](CCCCN)C(=O)N[C@@H](CCCCN)C(=O)N[C@@H](CCCCN)C(=O)N[C@H](Cc1ccccc1)C(=O)N[C@H]1CSSC[C@@H](C(=O)N[C@H](CO)[C@@H](C)O)NC(=O)[C@H]([C@@H](C)O)NC(=O)[C@H](CCCCN)NC(=O)[C@@H](Cc3c[nH]c4ccccc34)NC(=O)[C@H](Cc3ccccc3)NC1=O)[C@]1(C)O[C@H]1[C@H](C)[C@@H]1C[C@@](O)(NC(=O)O1)[C@H](OC)/C=C/C=C(\C)C2 [Conjugate 7] (H-C(X1)KKKK[dF]CF[dW]KTC[Thr(ol)]; disulfide 7-12) | 0.955 µM | 1.77 µM | 1.77 µM | – |
| COc1cc2cc(c1Cl)N(C)C(=O)C[C@H](OC(=O)[C@H](C)N(C)C(=O)CCSC1CC(=O)N(CCCNC(=O)CC[C@H]3C(=O)N[C@@H](Cc4ccc(O)cc4)C(=O)N[C@H](Cc4c[nH]c5ccccc45)C(=O)N[C@@H](CCCCN)C(=O)N[C@@H]([C@@H](C)O)C(=O)N[C@@H](Cc4ccccc4)C(=O)N3C)C1=O)[C@]1(C)O[C@H]1[C@H](C)[C@@H]1C[C@@](O)(NC(=O)O1)[C@H](OC)/C=C/C=C(\C)C2 (stereo partly drawn) [Conjugate 12] | – | – | 2.35 µM | 1.69 µM |
| COc1cc2cc(c1Cl)N(C)C(=O)C[C@H](OC(=O)[C@H](C)N(C)C(=O)CCSSCCC(=O)N1CCN(C(=O)CC[C@H]3C(=O)N[C@@H](Cc4ccc(O)cc4)C(=O)N[C@H](Cc4c[nH]c5ccccc45)C(=O)N[C@@H](CCCCN)C(=O)N[C@@H]([C@@H](C)O)C(=O)N[C@@H](Cc4ccccc4)C(=O)N3C)CC1)[C@]1(C)O[C@H]1[C@H](C)[C@@H]1C[C@@](O)(NC(=O)O1)[C@H](OC)/C=C/C=C(\C)C2 [Conjugate 26] | – | – | 1.16 µM | 0.787 µM |
| COc1cc2cc(c1Cl)N(C)C(=O)C[C@H](OC(=O)[C@H](C)N(C)C(=O)CCSSC1CCN(C(=O)CC[C@H]3C(=O)N[C@@H](Cc4ccc(O)cc4)C(=O)N[C@H](Cc4c[nH]c5ccccc45)C(=O)N[C@@H](CCCCN)C(=O)N[C@@H]([C@@H](C)O)C(=O)N[C@@H](Cc4ccccc4)C(=O)N3C)CC1)[C@]1(C)O[C@H]1[C@H](C)[C@@H]1C[C@@](O)(NC(=O)O1)[C@H](OC)/C=C/C=C(\C)C2 [Conjugate 28] | – | – | 1 µM | 0.669 µM |
| COc1cc2cc(c1Cl)N(C)C(=O)C[C@H](OC(=O)[C@H](C)N(C)C(=O)CCSSCC(=O)NCCNC(=O)CC[C@H]1C(=O)N[C@@H](Cc3ccc(O)cc3)C(=O)N[C@H](Cc3c[nH]c4ccccc34)C(=O)N[C@@H](CCCCN)C(=O)N[C@@H]([C@@H](C)O)C(=O)N[C@@H](Cc3ccccc3)C(=O)N1C)[C@]1(C)O[C@H]1[C@H](C)[C@@H]1C[C@@](O)(NC(=O)O1)[C@H](OC)/C=C/C=C(\C)C2 [Conjugate 30] | – | – | 2.02 µM | 0.47 µM |
| COc1cc2cc(c1Cl)N(C)C(=O)C[C@H](OC(=O)[C@H](C)N(C)C(=O)CCSSCCNC(=O)[C@@H](NC(=O)[C@@H]1CSSC[C@H](NC(=O)[C@H](N)Cc3ccccc3)C(=O)N[C@@H](Cc3csc4ccccc34)C(=O)N[C@H](Cc3c[nH]c4ccccc34)C(=O)N[C@@H](CCCCN)C(=O)N[C@@H]([C@@H](C)O)C(=O)N1)[C@@H](C)O)[C@]1(C)O[C@H]1[C@H](C)[C@@H]1C[C@@](O)(NC(=O)O1)[C@H](OC)/C=C/C=C(\C)C2 [Conjugate 37] | – | – | 0.166 µM | 0.044 µM |
| COc1cc2cc(c1Cl)N(C)C(=O)C[C@H](OC(=O)[C@H](C)N(C)C(=O)CCSSCCC(=O)NCCNC(=O)[C@@H](NC(=O)[C@@H]1CSSC[C@H](NC(=O)[C@H](N)Cc3ccccc3)C(=O)N[C@@H](Cc3ccc(O)cc3)C(=O)N[C@H](Cc3c[nH]c4ccccc34)C(=O)N[C@@H](CCCCN)C(=O)N[C@@H]([C@@H](C)O)C(=O)N1)[C@@H](C)O)[C@]1(C)O[C@H]1[C@H](C)[C@@H]1C[C@@](O)(NC(=O)O1)[C@H](OC)/C=C/C=C(\C)C2 [Conjugate 43] | – | – | 2.05 µM | 1.17 µM |
| COc1cc2cc(c1Cl)N(C)C(=O)C[C@H](OC(=O)[C@H](C)N(C)C(=O)CCSSCCC(=O)NCCNC(=O)[C@H](Cc1c[nH]c3ccccc13)NC(=O)[C@@H]1CSSC[C@H](NC(=O)[C@H](N)Cc3ccccc3)C(=O)N[C@@H](Cc3ccc(O)cc3)C(=O)N[C@H](Cc3c[nH]c4ccccc34)C(=O)N[C@@H](CCCCN)C(=O)N[C@@H]([C@@H](C)O)C(=O)N1)[C@]1(C)O[C@H]1[C@H](C)[C@@H]1C[C@@](O)(NC(=O)O1)[C@H](OC)/C=C/C=C(\C)C2 [Conjugate 45] | – | – | 0.481 µM | 0.345 µM |
| COc1cc2cc(c1Cl)N(C)C(=O)C[C@H](OC(=O)[C@H](C)N(C)C(=O)CCSSCCC(=O)NCCOCCOCCOCCNC(=O)[C@@H](NC(=O)[C@@H]1CSSC[C@H](NC(=O)[C@H](N)Cc3ccccc3)C(=O)N[C@@H](Cc3ccc(O)cc3)CN[C@H](Cc3c[nH]c4ccccc34)C(=O)N[C@@H](CCCCN)C(=O)N[C@@H]([C@@H](C)O)C(=O)N1)[C@@H](C)O)[C@]1(C)O[C@H]1[C@H](C)[C@@H]1C[C@@](O)(NC(=O)O1)[C@H](OC)/C=C/C=C(\C)C2 [Conjugate 47] | – | – | 1.27 µM | 2.13 µM |
| COc1cc2cc(c1Cl)N(C)C(=O)C[C@H](OC(=O)[C@H](C)N(C)C(=O)CCSSCCNC(=O)[C@H](Cc1c[nH]c3ccccc13)NC(=O)[C@@H]1CSSC[C@H](NC(=O)[C@H](N)Cc3ccccc3)C(=O)N[C@@H](Cc3ccc(O)cc3)CN[C@H](Cc3c[nH]c4ccccc34)C(=O)N[C@@H](CCCCN)C(=O)N[C@@H]([C@@H](C)O)C(=O)N1)[C@]1(C)O[C@H]1[C@H](C)[C@@H]1C[C@@](O)(NC(=O)O1)[C@H](OC)/C=C/C=C(\C)C2 [Conjugate 49] | – | – | 0.243 µM | 0.069 µM |
| COc1cc2cc(c1Cl)N(C)C(=O)C[C@H](OC(=O)[C@H](C)N(C)C(=O)CCSSCCC(=O)NCCNC(=O)[C@@H](NC(=O)[C@@H]1CSSC[C@H](NC(=O)[C@H](N)Cc3c[nH]c4ccccc34)C(=O)N[C@@H](Cc3ccc(O)cc3)C(=O)N[C@H](Cc3c[nH]c4ccccc34)C(=O)N[C@@H](CCCCN)C(=O)N[C@@H]([C@@H](C)O)C(=O)N1)[C@@H](C)O)[C@]1(C)O[C@H]1[C@H](C)[C@@H]1C[C@@](O)(NC(=O)O1)[C@H](OC)/C=C/C=C(\C)C2 [Conjugate 51] | – | – | 0.238 µM | 0.124 µM |
| COc1cc2cc(c1Cl)N(C)C(=O)C[C@H](OC(=O)[C@H](C)N(C)C(=O)CCSC1CC(=O)N(CCCNC(=O)CC[C@H](NC(=O)[C@@H]3CSSC[C@H](NC(=O)[C@H](N)Cc4ccccc4)C(=O)N[C@@H](Cc4ccc(O)cc4)CN[C@H](Cc4c[nH]c5ccccc45)C(=O)N[C@@H](CCCCN)C(=O)N[C@@H]([C@@H](C)O)C(=O)N3)C(=O)NCCCN3C(=O)CC(SCCC(=O)N(C)[C@@H](C)C(=O)O[C@H]4CC(=O)N(C)c5cc(cc(OC)c5Cl)C/C(C)=C/C=C/[C@@H](OC)[C@@]5(O)C[C@H](OC(=O)N5)[C@@H](C)[C@@H]5O[C@@]45C)C3=O)C1=O)[C@]1(C)O[C@H]1[C@H](C)[C@@H]1C[C@@](O)(NC(=O)O1)[C@H](OC)/C=C/C=C(\C)C2 (stereo partly drawn) [Conjugate 53] | – | – | 0.175 µM | 0.042 µM |
